Source: the supplement of paper PMC10307832

Experiments:
Test in all cases: relative viability (nuclei count vs DMSO), 5 days (fraction); higher = more cells survive
NCI-H2228 = test system: NCI-H2228
Summary of the method: (§1)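 Values are medians from duplicate plates. Each reflects relative viability, defined as the nuclei count of treated wells over that of vehicle wells. Lung cancer cell lines in 1536-well plates were pin-tool dosed one day after seeding with one drug alone or with a fixed anchor-drug dose plus five library-drug doses (not always all listed) in √10 steps, then fixed, stained and imaged at 4× after 5 days.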

NCI-H1755 = test system: NCI-H1755
Summary of the method: as §1

LK-2 = test system: LK-2
Summary of the method: as §1

UMC-11 = test system: UMC-11
Summary of the method: as §1

ABC-1 = test system: ABC-1
Summary of the method: as §1

NCI-H838 = test system: NCI-H838
Summary of the method: as §1

NCI-H1355 = test system: NCI-H1355
Summary of the method: as §1

NCI-H1666 = test system: NCI-H1666
Summary of the method: as §1

NCI-H520 = test system: NCI-H520
Summary of the method: as §1

HCC-366 = test system: HCC-366
Summary of the method: as §1

NCI-H358 = test system: NCI-H358
Summary of the method: as §1

NCI-H1650 = test system: NCI-H1650
Summary of the method: as §1

201T = test system: 201T
Summary of the method: as §1

NCI-H727 = test system: NCI-H727
Summary of the method: as §1

HCC-44 = test system: HCC-44
Summary of the method: as §1

NCI-H2347 = test system: NCI-H2347
Summary of the method: as §1

HCC-78 = test system: HCC-78
Summary of the method: as §1

SW 1573 = test system: SW 1573
Summary of the method: as §1

NCI-H1734 = test system: NCI-H1734
Summary of the method: as §1

BEN = test system: BEN
Summary of the method: as §1

NCI-H2009 = test system: NCI-H2009
Summary of the method: as §1

NCI-H2405 = test system: NCI-H2405
Summary of the method: as §1

LOU-NH91 = test system: LOU-NH91
Summary of the method: as §1

Cc1cnc(-c2cnc(NCCNc3ccc(C#N)cn3)nc2-c2ccc(Cl)cc2Cl)[nH]1 + C[C@@H](Oc1cc(-c2cnn(C3CCNCC3)c2)cnc1N)c1c(Cl)ccc(F)c1Cl [Crizotinib] (partner 1 µM)
relative viability (NCI-H2228; first compound 0.08 µM): 0.47 | relative viability (NCI-H2228; first compound 0.253 µM): 0.412 | relative viability (NCI-H2228; first compound 0.8 µM): 0.612 | relative viability (NCI-H2228; first compound 2.53 µM): 0.619 | relative viability (NCI-H1755; first compound 0.08 µM): 0.853 | relative viability (NCI-H1755; first compound 0.253 µM): 0.856 | relative viability (NCI-H1755; first compound 0.8 µM): 0.824 | relative viability (NCI-H1755; first compound 2.53 µM): 0.804 | relative viability (LK-2; first compound 0.08 µM): 0.194 | relative viability (LK-2; first compound 0.253 µM): 0.239 | relative viability (LK-2; first compound 0.8 µM): 0.242 | relative viability (LK-2; first compound 2.53 µM): 0.236 | relative viability (UMC-11; first compound 0.08 µM): 0.82 | relative viability (UMC-11; first compound 0.253 µM): 0.551 | relative viability (UMC-11; first compound 0.8 µM): 0.598 | relative viability (UMC-11; first compound 2.53 µM): 0.602 | relative viability (ABC-1; first compound 0.08 µM): 1.03 | relative viability (ABC-1; first compound 0.253 µM): 0.831 | relative viability (ABC-1; first compound 0.8 µM): 1.23 | relative viability (ABC-1; first compound 2.53 µM): 1.05 | relative viability (NCI-H838; first compound 0.08 µM): 0.855 | relative viability (NCI-H838; first compound 0.253 µM): 0.807 | relative viability (NCI-H838; first compound 0.8 µM): 0.951 | relative viability (NCI-H838; first compound 2.53 µM): 1.01 | relative viability (NCI-H1355; first compound 0.08 µM): 1.1 | relative viability (NCI-H1355; first compound 0.253 µM): 0.9 | relative viability (NCI-H1355; first compound 0.8 µM): 1 | relative viability (NCI-H1355; first compound 2.53 µM): 0.992 | relative viability (NCI-H1666; first compound 0.08 µM): 0.981 | relative viability (NCI-H1666; first compound 0.253 µM): 0.822 | relative viability (NCI-H1666; first compound 0.8 µM): 1.26 | relative viability (NCI-H1666; first compound 2.53 µM): 1.19 | relative viability (NCI-H520; first compound 0.08 µM): 0.901 | relative viability (NCI-H520; first compound 0.253 µM): 0.75 | relative viability (NCI-H520; first compound 0.8 µM): 0.765 | relative viability (NCI-H520; first compound 2.53 µM): 0.755 | relative viability (HCC-366; first compound 0.08 µM): 0.654 | relative viability (HCC-366; first compound 0.253 µM): 0.408 | relative viability (HCC-366; first compound 0.8 µM): 0.534 | relative viability (HCC-366; first compound 2.53 µM): 0.422 | relative viability (NCI-H358; first compound 0.08 µM): 0.609 | relative viability (NCI-H358; first compound 0.253 µM): 0.548 | relative viability (NCI-H358; first compound 0.8 µM): 0.569 | relative viability (NCI-H358; first compound 2.53 µM): 0.46 | relative viability (NCI-H1650; first compound 0.08 µM): 0.92 | relative viability (NCI-H1650; first compound 0.253 µM): 0.909 | relative viability (NCI-H1650; first compound 0.8 µM): 1.07 | relative viability (NCI-H1650; first compound 2.53 µM): 0.844 | relative viability (201T; first compound 0.08 µM): 1.07 | relative viability (201T; first compound 0.253 µM): 0.982 | relative viability (201T; first compound 0.8 µM): 1.02 | relative viability (201T; first compound 2.53 µM): 0.998 | relative viability (NCI-H727; first compound 0.08 µM): 1.67 | relative viability (NCI-H727; first compound 0.253 µM): 0.771 | relative viability (NCI-H727; first compound 0.8 µM): 0.797 | relative viability (NCI-H727; first compound 2.53 µM): 0.676 | relative viability (HCC-44; first compound 0.08 µM): 0.781 | relative viability (HCC-44; first compound 0.253 µM): 0.886 | relative viability (HCC-44; first compound 0.8 µM): 0.774 | relative viability (HCC-44; first compound 2.53 µM): 0.767 | relative viability (NCI-H2347; first compound 0.08 µM): 0.734 | relative viability (NCI-H2347; first compound 0.253 µM): 0.632 | relative viability (NCI-H2347; first compound 0.8 µM): 0.753 | relative viability (NCI-H2347; first compound 2.53 µM): 0.741 | relative viability (HCC-78; first compound 0.08 µM): 0.349 | relative viability (HCC-78; first compound 0.253 µM): 0.336 | relative viability (HCC-78; first compound 0.8 µM): 0.297 | relative viability (HCC-78; first compound 2.53 µM): 0.362 | relative viability (SW 1573; first compound 0.08 µM): 0.932 | relative viability (SW 1573; first compound 0.253 µM): 0.879 | relative viability (SW 1573; first compound 0.8 µM): 0.785 | relative viability (SW 1573; first compound 2.53 µM): 0.772 | relative viability (NCI-H1734; first compound 0.08 µM): 0.65 | relative viability (NCI-H1734; first compound 0.253 µM): 0.636 | relative viability (NCI-H1734; first compound 0.8 µM): 0.647 | relative viability (NCI-H1734; first compound 2.53 µM): 0.631 | relative viability (BEN; first compound 0.08 µM): 0.908 | relative viability (BEN; first compound 0.253 µM): 0.787 | relative viability (BEN; first compound 0.8 µM): 0.846 | relative viability (BEN; first compound 2.53 µM): 0.876 | relative viability (NCI-H2009; first compound 0.08 µM): 1.09 | relative viability (NCI-H2009; first compound 0.253 µM): 0.958 | relative viability (NCI-H2009; first compound 0.8 µM): 1 | relative viability (NCI-H2009; first compound 2.53 µM): 0.892 | relative viability (NCI-H2405; first compound 0.08 µM): 0.883 | relative viability (NCI-H2405; first compound 0.253 µM): 0.774 | relative viability (NCI-H2405; first compound 0.8 µM): 0.797 | relative viability (NCI-H2405; first compound 2.53 µM): 0.809 | relative viability (LOU-NH91; first compound 0.08 µM): 0.74 | relative viability (LOU-NH91; first compound 0.253 µM): 0.724 | relative viability (LOU-NH91; first compound 0.8 µM): 0.749 | relative viability (LOU-NH91; first compound 2.53 µM): 0.782
